# Data taken from the supplement of paper PMC11061612.
# Key:
# Carboplatin = compound: C1CC(C1)(C(=O)[O-])C(=O)[O-].N.N.[Pt+2] [Carboplatin]; conditions: max 10 µM
# How it was run: (§1)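 Cancer cell lines were plated in 1536-well plates in 7.5 μl of DMEM/F12 or RPMI with 10% FBS and kept 24 hours at 37°C and 5% CO2 before 72 hours of dosing, with final DMSO typically 0.2%. CellTiter-Glo 2.0 luminescence measured viability, scaled between blank-well and DMSO-well means. Dose responses were fitted to a two-parameter logistic curve with a non-linear mixed effects model. This fit gives the single-agent IC50.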
# AZD5363 = compound: C1CN(CCC1(C(=O)N[C@@H](CCO)C2=CC=C(C=C2)Cl)N)C3=NC=NC4=C3C=CN4 [AZD5363]; conditions: max 10 µM
# How it was run: as §1
# AZD1775 = compound: C=CCn1c(=O)c2cnc(Nc3ccc(N4CCN(C)CC4)cc3)nc2n1-c1cccc(C(C)(C)O)n1 [AZD1775]; conditions: max 3 µM
# How it was run: as §1
# Trametinib = compound: CC(=O)Nc1cccc(-n2c(=O)n(C3CC3)c(=O)c3c(Nc4ccc(I)cc4F)n(C)c(=O)c(C)c32)c1 [Trametinib]; conditions: max 1 µM
# How it was run: as §1
# Paclitaxel = compound: CC(=O)O[C@H]1C(=O)[C@@]2(C)[C@H]([C@H](OC(=O)c3ccccc3)[C@]3(O)C[C@H](OC(=O)[C@H](O)[C@@H](NC(=O)c4ccccc4)c4ccccc4)C(C)=C1C3(C)C)[C@]1(OC(C)=O)CO[C@@H]1C[C@@H]2O [Paclitaxel]; conditions: max 3 µM
# How it was run: as §1
# Palbociclib = compound: CC(=O)c1c(C)c2cnc(Nc3ccc(N4CCNCC4)cn3)nc2n(C2CCCC2)c1=O [Palbociclib]; conditions: max 10 µM
# How it was run: as §1
# AZD1390 = compound: CC(C)n1c(=O)n(C)c2cnc3cc(F)c(-c4ccc(OCCCN5CCCCC5)nc4)cc3c21 [AZD1390]; conditions: max 0.3 µM
# How it was run: as §1
# Venetoclax = compound: CC1(C)CCC(CN2CCN(c3ccc(C(=O)NS(=O)(=O)c4ccc(NCC5CCOCC5)c([N+](=O)[O-])c4)c(Oc4cnc5[nH]ccc5c4)c3)CC2)=C(c2ccc(Cl)cc2)C1 [Venetoclax]; conditions: max 1 µM
# How it was run: as §1
# Dasatinib = compound: CC1=C(C(=CC=C1)Cl)NC(=O)C2=CN=C(S2)NC3=CC(=NC(=N3)C)N4CCN(CC4)CCO [Dasatinib]; conditions: max 2 µM
# How it was run: as §1
# SG3199 = compound: CC1=CN2[C@@H](C1)C=NC3=CC(=C(C=C3C2=O)OC)OCCCCCOC4=C(C=C5C(=C4)N=C[C@@H]6CC(=CN6C5=O)C)OC [SG3199]; conditions: max 0.001 µM
# How it was run: as §1
# AZD2811 = compound: CCN(CCO)CCCOc1ccc2c(Nc3cc(CC(=O)Nc4cccc(F)c4)[nH]n3)ncnc2c1 [AZD2811]; conditions: max 1 µM
# How it was run: as §1
# SN-38 = compound: CCc1c2c(nc3ccc(O)cc13)-c1cc3c(c(=O)n1C2)COC(=O)[C@]3(O)CC [SN-38]; conditions: max 0.3 µM
# How it was run: as §1
# AZD0156 = compound: CN(C)CCCOc1ccc(-c2ccc3ncc4c(c3c2)n(C2CCOCC2)c(=O)n4C)cn1 [AZD0156]; conditions: max 3 µM
# How it was run: as §1
# AZD4320 = compound: CN(CC[C@H](CSC1=CC=CC=C1)NC2=C(C=C(C=C2)S(=O)(=O)NC(=O)C3=CC=C(C=C3)N4CCC(CC4)[C@H](C5=CC=CC=C5C6=CC=C(C=C6)Cl)O)S(=O)(=O)C(F)(F)F)CCO [AZD4320]; conditions: max 1 µM
# How it was run: as §1
# Alisertib = compound: COc1cc(Nc2ncc3c(n2)-c2ccc(Cl)cc2C(c2c(F)cccc2OC)=NC3)ccc1C(=O)O [Alisertib]; conditions: max 10 µM
# How it was run: as §1
# Etoposide = compound: COc1cc([C@@H]2c3cc4c(cc3[C@@H](O[C@@H]3O[C@@H]5CO[C@@H](C)O[C@H]5[C@H](O)[C@H]3O)[C@H]3COC(=O)[C@H]23)OCO4)cc(OC)c1O [Etoposide]; conditions: max 10 µM
# How it was run: as §1
# Gefitinib = compound: COc1cc2ncnc(Nc3ccc(F)c(Cl)c3)c2cc1OCCCN1CCOCC1 [Gefitinib]; conditions: max 10 µM
# How it was run: as §1
# Prexasertib = compound: COc1cccc(OCCCN)c1-c1cc(Nc2cnc(C#N)cn2)n[nH]1 [Prexasertib]; conditions: max 1 µM
# How it was run: as §1
# Doxorubicin = compound: COc1cccc2c1C(=O)c1c(O)c3c(c(O)c1C2=O)C[C@@](O)(C(=O)CO)C[C@@H]3O[C@H]1C[C@H](N)[C@H](O)[C@H](C)O1 [Doxorubicin]; conditions: max 1 µM
# How it was run: as §1
# AZD5153 = compound: COc1nnc2ccc(N3CCC(c4ccc(OCCN5CCN(C)C(=O)[C@H]5C)cc4)CC3)nn12 [AZD5153]; conditions: max 1 µM
# How it was run: as §1
# Lapatinib = compound: CS(=O)(=O)CCNCc1ccc(-c2ccc3ncnc(Nc4ccc(OCc5cccc(F)c5)c(Cl)c4)c3c2)o1 [Lapatinib]; conditions: max 10 µM
# How it was run: as §1
# AZD8186 = compound: C[C@@H](Nc1cc(F)cc(F)c1)c1cc(C(=O)N(C)C)cc2c(=O)cc(N3CCOCC3)oc12 [AZD8186]; conditions: max 10 µM
# How it was run: as §1
# Crizotinib = compound: C[C@@H](Oc1cc(-c2cnn(C3CCNCC3)c2)cnc1N)c1c(Cl)ccc(F)c1Cl [Crizotinib]; conditions: max 10 µM
# How it was run: as §1
# Savolitinib = compound: C[C@@H](c1ccc2nccn2c1)n1nnc2ncc(-c3cnn(C)c3)nc21 [Savolitinib]; conditions: max 1 µM
# How it was run: as §1
# AZD6738 = compound: C[C@@H]1COCCN1C2=NC(=NC(=C2)C3(CC3)[S@](=N)(=O)C)C4=C5C=CNC5=NC=C4 [AZD6738]; conditions: max 10 µM
# How it was run: as §1
# AZD5991 = compound: Cc1c2c(nn1C)CSCc1cc(n(C)n1)CSc1cc(c3ccccc3c1)OCCCc1c(C(=O)O)n(C)c3c-2c(Cl)ccc13 [AZD5991]; conditions: max 1 µM
# How it was run: as §1
# AZD7648 = compound: Cc1cc2ncnn2cc1Nc1ncc2c(n1)n(C1CCOCC1)c(=O)n2C [AZD7648]; conditions: max 10 µM
# How it was run: as §1
# Taselisib = compound: Cc1nc(-c2cn3c(n2)-c2ccc(-c4cnn(C(C)(C)C(N)=O)c4)cc2OCC3)n(C(C)C)n1 [Taselisib]; conditions: max 10 µM
# How it was run: as §1
# Selumetinib = compound: Cn1cnc2c(F)c(Nc3ccc(Br)cc3Cl)c(C(=O)NOCCO)cc21 [Selumetinib]; conditions: max 10 µM
# How it was run: as §1
# SRA737 = compound: N#Cc1cnc(Nc2cc(NC[C@H]3CNCCO3)c(C(F)(F)F)cn2)cn1 [SRA737]; conditions: max 10 µM
# How it was run: as §1
# MK-2206 = compound: NC1(c2ccc(-c3nc4ccn5c(=O)[nH]nc5c4cc3-c3ccccc3)cc2)CCC1 [MK-2206]; conditions: max 10 µM
# How it was run: as §1
# Gemcitabine = compound: Nc1ccn([C@@H]2O[C@H](CO)[C@@H](O)C2(F)F)c(=O)n1 [Gemcitabine]; conditions: max 0.3 µM
# How it was run: as §1
# [1] = compound: O=C(Nc1ccc2[nH]nc(-c3ccncc3)c2c1)[C@@H]1CCN(CC(=O)N2CCN(c3ccc(-c4ncccn4)cc3)CC2)C1; conditions: max 5 µM
# How it was run: as §1
# Olaparib = compound: O=C(c1cc(Cc2n[nH]c(=O)c3ccccc23)ccc1F)N1CCN(C(=O)C2CC2)CC1 [Olaparib]; conditions: max 10 µM
# How it was run: as §1
# 5-Fluorouracil = compound: O=c1[nH]cc(F)c(=O)[nH]1 [5-Fluorouracil]; conditions: max 20 µM
# How it was run: as §1
Cell Line,"IC50, cell viability 72 h (Carboplatin) [nM]","IC50, cell viability 72 h (AZD5363) [nM]","IC50, cell viability 72 h (AZD1775) [nM]","IC50, cell viability 72 h (Trametinib) [nM]","IC50, cell viability 72 h (Paclitaxel) [nM]","IC50, cell viability 72 h (Palbociclib) [nM]","IC50, cell viability 72 h (AZD1390) [nM]","IC50, cell viability 72 h (Venetoclax) [nM]","IC50, cell viability 72 h (Dasatinib) [nM]","IC50, cell viability 72 h (SG3199) [nM]","IC50, cell viability 72 h (AZD2811) [nM]","IC50, cell viability 72 h (SN-38) [nM]","IC50, cell viability 72 h (AZD0156) [nM]","IC50, cell viability 72 h (AZD4320) [nM]","IC50, cell viability 72 h (Alisertib) [nM]","IC50, cell viability 72 h (Etoposide) [nM]","IC50, cell viability 72 h (Gefitinib) [nM]","IC50, cell viability 72 h (Prexasertib) [nM]","IC50, cell viability 72 h (Doxorubicin) [nM]","IC50, cell viability 72 h (AZD5153) [nM]","IC50, cell viability 72 h (Lapatinib) [nM]","IC50, cell viability 72 h (AZD8186) [nM]","IC50, cell viability 72 h (Crizotinib) [nM]","IC50, cell viability 72 h (Savolitinib) [nM]","IC50, cell viability 72 h (AZD6738) [nM]","IC50, cell viability 72 h (AZD5991) [nM]","IC50, cell viability 72 h (AZD7648) [nM]","IC50, cell viability 72 h (Taselisib) [nM]","IC50, cell viability 72 h (Selumetinib) [nM]","IC50, cell viability 72 h (SRA737) [nM]","IC50, cell viability 72 h (MK-2206) [nM]","IC50, cell viability 72 h (Gemcitabine) [nM]","IC50, cell viability 72 h [1] [nM]","IC50, cell viability 72 h (Olaparib) [nM]","IC50, cell viability 72 h (5-Fluorouracil) [nM]"
WIL2-NS (Non-Cancerous),> 10000,2380,231,> 1000,10.7,629,> 300,> 1000,1350,> 1,> 1000,4.65,> 3000,> 1000,927,375,> 10000,6.04,105,44.8,> 10000,> 10000,> 10000,> 1000,1260,> 1000,> 10000,6950,> 10000,1730,6090,7.8,> 5000,> 10000,> 20000
WM-115 (Melanoma),> 10000,> 10000,> 3000,182,387,> 10000,> 300,> 1000,> 2000,> 1,> 1000,> 300,> 3000,> 1000,> 10000,> 10000,> 10000,486,633,> 1000,> 10000,3410,> 10000,> 1000,> 10000,> 1000,> 10000,7270,> 10000,> 10000,> 10000,> 300,> 5000,> 10000,> 20000
